The record followed here is US20090035270A1, “COMBINATION THERAPY USING ANTI-ANGIOGENIC AGENTS AND TNF alpha” (priority 2001, published 2009).

Assay [1] has as its system HUVEC. Kind of assay: Detection of apoptotic HUVEC in culture (YoPro-1 staining). Format: cell-based, human. Particulars: peptide 300 μM; TNF 200 ng/ml; IFNγ 330 ng/ml. The protocol:
To test whether integrins modulate TNF-induced apoptosis, we cultured HUVEC on fibronectin (integrin-dependent adhesion) or as spheroids (integrin-independent adhesion) in the absence or presence of TNF (200 ng/ml) and of IFNγ (330 ng/ml), an enhancer of TNF cytotoxicity (Dealtry et al., Eur. J. Immunol. 17, 689-693 (1987)). […] In contrast, spheroids treated with TNF±IFNγ increased uptake of YoPro-1 (an increase suppressed by caspase inhibitors BOC, Z-VAD, IETD and DVED), DNA fragmentation, caspase-3 activation and cleavage of PARP (FIG. 2a, 2b and data not shown). To examine the effect of TNF±IFNγ on cell survival we determined the viability of untreated and treated cultures. […] Treatment with IFNγ alone was not cytotoxic (data not shown). HUVEC adhere to immobilized fibronectin via αVβ3 and α5β1 integrins (Rüegg et al., Nature Med. 4, 408-414 (1998)). To test for the individual contribution of these integrins to cell survival on fibronectin, we cultured HUVEC on plastic-immobilized mAbs (imAbs) directed against αVβ3, α1, α5 and α4 integrins.
For morphological evaluation, spheroids were embedded in Epon (Fluka Chemie) and thick sections were stained with 1% Methylene/Azur blue. For immunostaining, frozen spheroid sections were fixed in 4% (Fluka Chemis, Buchs, Switzerland) formaldehyde. After blocking with 1% BSA, sections were sequentially incubated for 1 hour with primary mAb (20 μg/ml) and a Cyan3-labeled GaM antiserum (West Grove, Pa., USA). For the TUNEL reaction, frozen spheroids sections were fixed in 4% paraformaledhyde and processed as described (Ruegg et al., I.e.). Spherouids were countsrstained with propidium iodide for total DNA content. […] The apoptosis index was determined by calculating the ratio between the green (TUNEL staining of fragmented DNA) and red (propidium iodide staining by total DNA) pixels. Number of analyzed spheroids per condition were: C, 31; T, 21; TI, 12. […] Cultures were viewed by inverted fluorescence microscopy (Leica DM IRB, Heerbrugg, Switzerland). […]

Assay [2] relates to BN-175 syngeneic soft tissue sarcoma. Kind of assay: Isolated limb perfusion (ILP) of BN rats bearing BN-175 soft tissue sarcoma. It counts as in vivo. To be noted: ILP 30 min; EMD121974 500 μg (plus 100 mg/kg i.p.); TNF 50 μg; 6 days after ILP. The protocol:
FIG. 7. Decreased integrin ligation enhances TNF cytotoxicity in in vivo. BN rats bearing the BN-175 syngeneic soft tissue sarcoma were treated with EMD121974 (□), TNF (Δ) or EMD121974/TNF (▪) by ILP technique. (◯) sham-treated rats. Tumor growth was measured for 6 days after ILP. Results represent the mean tumor volume ±s.e.m. (n=6). Small fragments of the syngeneic soft tissue sarcoma BN-175 were implanted in the right hind limb of male BN rats, and treatment started when diameter reached 12-14 mm (Manusama et al., Oncol Rep. 6, 173-177. (1999)). The femoral artery and vein were canulated with silastic tubing and collaterals occluded with a tourniquet. The perfusion was performed for 30 min with 5 ml Heamaccel® (2.4 ml/min) in which the drugs were added as boluses (EMD121974, 500 μg, end concentration in perfusate 170 μM; TNF, 50 μg). The perfusate was oxygenated and the leg kept on 38-39° C. with a warm mattress. Rats perfused with EMD121974 also received systemic administration of the peptide 2 hours before and 3 hours after ILP (100 mg/kg i.p.). Tumor diameter was measured in two directions by caliper measurements and tumor volume (V) was calculated (V= 0.4)(A^2×B, where B represents the largest diameter and A the diameter perpendicular to B). 6 rats were treated per group. Local and systemic side effects were evaluated as described (Manusama et al., Oncol. Rep. 6, 173-177. (1999)). […]

Another assay has as its system BN175 tumor cells. Description: Sensitivity of BN175 tumor cells in vitro. It counts as cell-based, rat. Particulars: unpublished observation.
Assay [3] concerns HUVEC. Format: cell-based. The protocol:
To determine the effect of spheroid culture on cell viability, spheroids and fibronectin-adherent HUVEC were recovered between 6 and 72 hours after plating, serially diluted and further cultured for an additional 48 hours before relative cell number was determined. A shift-to-the left or a flattening of the dilution curve indicates decreased viability.
To test whether integrins modulate TNF-induced apoptosis, we cultured HUVEC on fibronectin (integrin-dependent adhesion) or as spheroids (integrin-independent adhesion) in the absence or presence of TNF (200 ng/ml) and of IFNγ (330 ng/ml), an enhancer of TNF cytotoxicity (Dealtry et al., Eur. J. Immunol. 17, 689-693 (1987)). […] To examine the effect of TNF±IFNγ on cell survival we determined the viability of untreated and treated cultures. […]
For survival, HUVEC spheroids plated at 1×10^6 cells/ml in 1% BSA-coated 24 mm wells, or adherent cells plated at 4×10^5 cells in 3 μg/ml fibronectin-coated 35 mm wells of non-tissue culture plates (Evergreen Scientific), were stimulated with TNFα (200 ng/ml=10^4 U/ml)±IFNγ (330 ng/ml=10^4 U/ml). […] Relative cell number was assessed 48 hours later by measuring MTT conversion during the last 4 hours of culture. […]

For another assay, the target named is T1, integrin αVβ3 (Homo sapiens, UniProt P05106+P06756).
T1 construct: EMD121974 disrupted αVβ3-mediated HUVEC adhesion on gelatin; endogenous in cells; host or cells: HUVEC (primary, passages 3 to 7)
T1 sequence (P06756 31-889 limits assumed): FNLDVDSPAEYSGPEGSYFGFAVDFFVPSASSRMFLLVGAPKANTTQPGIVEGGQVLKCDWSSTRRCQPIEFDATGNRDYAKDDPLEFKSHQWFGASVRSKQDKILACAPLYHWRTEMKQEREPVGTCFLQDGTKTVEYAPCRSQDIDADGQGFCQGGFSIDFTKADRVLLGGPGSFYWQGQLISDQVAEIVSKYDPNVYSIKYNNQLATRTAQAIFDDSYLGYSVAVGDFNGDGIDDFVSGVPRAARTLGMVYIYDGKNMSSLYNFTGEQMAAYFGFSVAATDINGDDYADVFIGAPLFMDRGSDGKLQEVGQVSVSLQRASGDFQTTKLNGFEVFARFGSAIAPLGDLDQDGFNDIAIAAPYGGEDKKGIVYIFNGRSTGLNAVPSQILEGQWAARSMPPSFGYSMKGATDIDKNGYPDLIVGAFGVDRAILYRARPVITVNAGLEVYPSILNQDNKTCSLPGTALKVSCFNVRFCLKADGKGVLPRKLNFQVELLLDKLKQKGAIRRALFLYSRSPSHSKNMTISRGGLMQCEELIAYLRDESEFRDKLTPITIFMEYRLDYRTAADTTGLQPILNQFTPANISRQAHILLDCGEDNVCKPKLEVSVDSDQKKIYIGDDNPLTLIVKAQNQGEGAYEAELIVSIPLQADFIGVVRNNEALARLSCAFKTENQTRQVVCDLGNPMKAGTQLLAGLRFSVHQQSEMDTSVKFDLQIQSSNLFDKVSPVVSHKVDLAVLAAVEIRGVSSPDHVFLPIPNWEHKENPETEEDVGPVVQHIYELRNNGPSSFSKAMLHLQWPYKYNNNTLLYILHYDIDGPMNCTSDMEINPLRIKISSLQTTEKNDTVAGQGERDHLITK
T1 sequence (P06756 891-1048 partner limits assumed): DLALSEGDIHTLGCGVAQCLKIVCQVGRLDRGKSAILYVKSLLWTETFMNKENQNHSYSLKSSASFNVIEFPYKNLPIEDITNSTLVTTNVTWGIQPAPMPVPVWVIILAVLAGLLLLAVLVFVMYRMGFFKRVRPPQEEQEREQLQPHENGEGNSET
T1 sequence (P05106 27-788): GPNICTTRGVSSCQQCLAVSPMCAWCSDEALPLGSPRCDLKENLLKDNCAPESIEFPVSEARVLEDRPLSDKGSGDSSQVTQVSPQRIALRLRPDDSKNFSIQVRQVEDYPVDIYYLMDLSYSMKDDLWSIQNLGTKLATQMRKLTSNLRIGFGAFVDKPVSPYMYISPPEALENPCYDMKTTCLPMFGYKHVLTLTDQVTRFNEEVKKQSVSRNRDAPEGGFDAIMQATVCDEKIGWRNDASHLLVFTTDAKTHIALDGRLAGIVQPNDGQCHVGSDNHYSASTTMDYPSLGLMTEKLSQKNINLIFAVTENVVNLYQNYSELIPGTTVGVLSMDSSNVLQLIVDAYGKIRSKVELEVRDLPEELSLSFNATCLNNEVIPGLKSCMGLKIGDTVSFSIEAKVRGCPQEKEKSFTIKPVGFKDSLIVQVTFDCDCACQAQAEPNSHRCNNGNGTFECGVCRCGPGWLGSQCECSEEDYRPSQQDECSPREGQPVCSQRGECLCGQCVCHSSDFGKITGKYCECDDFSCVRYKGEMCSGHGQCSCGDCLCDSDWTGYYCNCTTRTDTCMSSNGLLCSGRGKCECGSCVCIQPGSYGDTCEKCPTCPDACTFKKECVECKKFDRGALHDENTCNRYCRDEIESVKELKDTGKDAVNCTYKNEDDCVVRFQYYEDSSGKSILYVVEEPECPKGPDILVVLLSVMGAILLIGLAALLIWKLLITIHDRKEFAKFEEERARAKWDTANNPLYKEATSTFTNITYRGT
Kind of assay: Cell detachment assay, HUVEC on gelatin. It counts as cell-based. Particulars: graded peptide concentrations; 2 hours. The protocol: (§1) Maxisorp II ELISA plates were coated with 1 μg/well of fibrobnectin or 0.5% gelatin overnight at 4° C. in PBS. Coated wells were rinsed and blocked with 1% BSA for 2 hours at 37° C. and rinsed before use. 2×10^4 c/well in basal medium without FCS were added and briefly sedimented by centrifugation (40×g). Cells were let adhere for 2 hours at 37° C. before peptides were added at graded concentrations. After 2 hours, wells were rinsed with warm PBS, and attached cells were fixed in 2% paraformaldehyde, stained with 0.5% crystal violet (Sigma Chemie) and quantified by O.D. reading at 620 nm (Packard Spectra Count). Results are given as O.D. values and represent the mean of duplicate wells ±s.d. of specific adhesion (= adhesion on ECM protein minus adhesion on BSA).

The target of the next assay is T2, α5β1 (Homo sapiens, UniProt P05556+P08648).
T2 construct: HUVEC adhere to immobilized fibronectin via αVβ3 and α5β1 integrins; endogenous in cells; host or cells: HUVEC (primary, passages 3 to 7)
T2 sequence (P08648 42-894 limits assumed): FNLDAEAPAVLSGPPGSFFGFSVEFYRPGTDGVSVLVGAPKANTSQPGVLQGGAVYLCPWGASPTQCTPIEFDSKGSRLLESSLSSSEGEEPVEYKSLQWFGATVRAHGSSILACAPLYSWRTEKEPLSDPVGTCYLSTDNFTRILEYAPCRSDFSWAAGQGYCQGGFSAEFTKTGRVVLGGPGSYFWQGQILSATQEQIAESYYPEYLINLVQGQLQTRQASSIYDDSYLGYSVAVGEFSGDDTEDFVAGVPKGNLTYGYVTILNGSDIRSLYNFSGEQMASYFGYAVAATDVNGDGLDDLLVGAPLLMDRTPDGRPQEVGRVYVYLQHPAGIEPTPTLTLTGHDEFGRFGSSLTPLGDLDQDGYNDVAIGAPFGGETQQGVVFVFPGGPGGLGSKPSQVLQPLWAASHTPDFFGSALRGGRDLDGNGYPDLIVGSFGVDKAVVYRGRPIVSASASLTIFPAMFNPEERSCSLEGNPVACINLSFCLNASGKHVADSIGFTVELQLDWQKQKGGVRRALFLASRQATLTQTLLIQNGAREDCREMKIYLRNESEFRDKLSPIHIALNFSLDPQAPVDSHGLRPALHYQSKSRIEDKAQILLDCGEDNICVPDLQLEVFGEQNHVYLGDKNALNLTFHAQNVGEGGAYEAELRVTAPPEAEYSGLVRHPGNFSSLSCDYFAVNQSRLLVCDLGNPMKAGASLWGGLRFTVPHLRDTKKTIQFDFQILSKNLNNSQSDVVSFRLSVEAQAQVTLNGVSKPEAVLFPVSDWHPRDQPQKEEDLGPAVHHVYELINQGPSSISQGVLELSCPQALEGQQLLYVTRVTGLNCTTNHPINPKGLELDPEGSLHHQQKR
T2 sequence (P08648 895-1049 partner limits assumed): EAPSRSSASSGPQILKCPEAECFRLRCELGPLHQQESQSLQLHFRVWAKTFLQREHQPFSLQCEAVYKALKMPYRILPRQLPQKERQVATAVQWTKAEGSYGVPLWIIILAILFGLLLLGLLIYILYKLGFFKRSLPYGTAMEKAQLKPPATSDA
T2 sequence (P05556 21-798): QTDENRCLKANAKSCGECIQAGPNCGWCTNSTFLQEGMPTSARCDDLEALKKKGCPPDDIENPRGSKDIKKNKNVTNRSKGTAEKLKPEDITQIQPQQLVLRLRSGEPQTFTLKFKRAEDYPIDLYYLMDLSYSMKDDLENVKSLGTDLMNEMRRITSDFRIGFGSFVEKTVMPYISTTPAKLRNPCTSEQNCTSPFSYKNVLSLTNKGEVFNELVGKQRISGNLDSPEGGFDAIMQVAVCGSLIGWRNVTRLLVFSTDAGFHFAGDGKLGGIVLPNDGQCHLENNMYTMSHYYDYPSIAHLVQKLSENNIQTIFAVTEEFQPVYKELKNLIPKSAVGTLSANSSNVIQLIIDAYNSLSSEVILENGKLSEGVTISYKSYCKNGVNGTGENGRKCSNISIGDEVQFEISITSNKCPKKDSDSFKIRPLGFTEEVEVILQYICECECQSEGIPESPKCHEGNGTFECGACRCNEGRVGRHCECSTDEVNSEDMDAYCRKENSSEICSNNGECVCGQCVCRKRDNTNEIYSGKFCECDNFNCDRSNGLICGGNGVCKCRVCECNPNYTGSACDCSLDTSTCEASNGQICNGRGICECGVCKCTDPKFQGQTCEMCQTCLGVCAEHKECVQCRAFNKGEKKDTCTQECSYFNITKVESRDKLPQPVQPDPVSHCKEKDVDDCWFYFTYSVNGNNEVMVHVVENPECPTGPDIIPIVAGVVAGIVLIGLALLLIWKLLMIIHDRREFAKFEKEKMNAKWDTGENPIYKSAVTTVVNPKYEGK
Kind of assay: Cell detachment assay, HUVEC on fibronectin. It counts as cell-based. To be noted: graded peptide concentrations; 2 hours. The protocol:
as §1

For `CC(C)[C@H]1C(=O)N[C@@H](CCCN=C(N)N)C(=O)NCC(=O)N[C@@H](CC(=O)O)C(=O)N[C@H](Cc2ccccc2)C(=O)N1C` [EMD121974, cyclo-(Arg-Gly-Asp-DPhe-NMeVal)], the “apoptosis and detachment of HUVEC on fibronectin, combined exposure to TNF/IFNγ and peptide” value in the assay with HUVEC [1] was “increased apoptosis and detachment”. Besides, in assay [2], the tumor growth result is “no impact on tumor growth”. Besides, in the assay on BN175 tumor cells, the “sensitivity of BN175 tumor cells to αVβ3 selective inhibitors” value is “low sensitivity”. In addition, in the assay with HUVEC [3] (fibronectin-adherent, TNF 200 ng/ml ± IFNγ 330 ng/ml, EMD peptide 300 μM), the “cell viability / survival of fibronectin-adherent HUVEC, agent alone” value is given as “neither TNF/IFNγ nor EMD121974 alone affected survival”. For the same molecule, the “survival of HUVEC on fibronectin, combined exposure to TNF/IFNγ and peptide” value in the assay on HUVEC [3] (peptide 300 μM, TNF 200 ng/ml, IFNγ 330 ng/ml) is on record as “reduced survival”. Further, at integrin αVβ3, the “αVβ3-mediated HUVEC adhesion on gelatin” value is reported as “disrupted”. In addition, on α5β1, the “α5β1 component of the α5β1/αVβ3-mediated adhesion to fibronectin” value is given as “does not affect”.
